Earlier results in patent US20050063990A1, “Compositons and methods for weight loss” (priority 2003, published 2005).

Assays:
[1] = animal studies (mice fed CLA)

Substance: conjugated linoleic acid [CLA]
- abdominal fat (men classified as abdominally obese): decrease abdominal fat
- total fat mass (overweight and obese humans): reduces total fat mass
- increase in use of fat as fuel (energy expenditure) [1]: 74%
